# Reference: US20110195845A1, “Constructs for Expressing Herbicide Tolerance Genes, Related Plants, and Related Trait Combinations” (Dow AgroSciences LLC, priority 2008, published 2011)
# Legend:
# [1] = test system: NT-1 tobacco suspension cells treated with DSM-2 (v2) (pDAB3778); experiment: NT-1 tobacco cell transformation, selection on bialaphos or glufosinate ammonium; assay type: cell-based; conditions: for Transformation Frequency on 10 mg/L Bialaphos following PCR Verification: % of selection plates with at least one PCR positive isolate
# Description: (§1) Four days prior to transformation, a 1 week old NT-1 tobacco suspension, which was being subcultured every 7 days, was subcultured to fresh medium by adding 2 ml of the NT-1 culture or 1 ml of packed cells into 40 ml NT-1 B media. The subcultured suspension was maintained in the dark at 25±1° C. on a shaker at 125 rpm.
# (§2) A 50% glycerol stock of Agrobacterium tumefaciens [strain LBA4404] harboring a binary vector of interest was used to initiate a liquid overnight culture by adding 20, 100, or 500 μl to 30 ml YEP liquid (10 g/L yeast extract, 10 g/L Peptone, 5 g/L NaCl, 0-10 g/L Sucrose) containing 50-100 mg/L spectinomycin. The bacterial culture was incubated in the dark at 28° C. in an incubator shaker at 150-250 rpm until the OD600 was 1.5+0.2. This took approximately 18-20 hrs.
# (§3) For each vector tested, 20-70 mL of 4-day old suspension cells were transferred into a sterile vessel, to which 500-1750 μl of Agrobacterium suspension at the proper OD was added. To ensure a uniform mixture was achieved, the cells were pipetted up and down 5 times with a 10 ml wide-bore pipet. The uniform suspension was then drawn up into a 25 ml barrel of a repeat pipetter and 250 μl of the suspension was dispensed per well into 24-well plates, continuing until the suspension was exhausted. The well plates were wrapped in parafilm and cultured in the dark at 25±1° C. without shaking for a 3 day co-cultivation.
# Following the co-cultivation, all excess liquid was removed from the individual wells with a 1 mL pipet tip, and remaining cells were resuspended in 1 ml NTC liquid (NT-1 B medium containing 500 mg/L carbenicillin, added after autoclaving). The contents of an individual well were dispersed across the entire surface of 100×25 mm selection plates using disposable transfer pipets. Selection media consisted of NTC media solidified with 8 g/l TC agar supplemented with 7.5 to 15 mg/L bialaphos or technical grade glufosinate ammonium, added after autoclaving. All selection plates, left unwrapped, were maintained in the dark at 28° C.
# Putative transformants appeared as small clusters of callus on a background of dead, non-transformed cells. Calli were isolated approximately 2-6 weeks post-transformation. Each callus isolate was transferred to its own 60×20 mm plate containing the same selection medium and allowed to grow for approximately 2 weeks before being submitted for analysis.
# [2] = test system: NT-1 tobacco suspension cells treated with PAT (pDAB3779); experiment: NT-1 tobacco cell transformation, selection on bialaphos; assay type: cell-based; conditions: % of selection plates with at least one PCR positive isolate
# Description: as §1, §2
# as §3, with “The well plates were wrapped in parafilm and cultured in the dark at 25±1° C. without shaking for a 3 day co-cultivation.” left out
compound,measurement,setting,value
C[C@H](NC(=O)[C@H](C)NC(=O)[C@@H](N)CCP(C)(=O)O)C(=O)O [Bialaphos],Transformation frequency (% of selection plates producing at least one callus) after coding region PCR,[1]; 7.5 mg/L selection agent,38.9%
same,Transformation Frequency on 10 mg/L Bialaphos following PCR Verification,[1],79%
same,Transformation Frequency on 10 mg/L Bialaphos following PCR Verification,[1]; listed as bialaphos,79%
same,Transformation frequency (% of selection plates producing at least one callus) after coding region PCR,[1]; 10 mg/L selection agent,44.4%
same,Transformation frequency (% of selection plates producing at least one callus) after coding region PCR,[1]; 12.5 mg/L selection agent,38.9%
same,Transformation frequency (% of selection plates producing at least one callus) after coding region PCR,[1]; 15 mg/L selection agent,22.2%
same,Transformation Frequency on 10 mg/L Bialaphos following PCR Verification,[2],100%
same,Transformation Frequency on 10 mg/L Bialaphos following PCR Verification,[2]; listed as bialaphos,100%
